Assay results published in BindingDB's records for doi:10.7270/Q2H130FK (Nmmlsc, 2007).
pEC50: −log10 of the molar value. Counter-ions that a name gives are not always drawn.

biological target: T1, Integrin alpha-4 (Homo sapiens, UniProt P05556+P13612); assay: inhibition of LDV ligand binding to VLA-4 – cell-based, LDV-FITC binding, flow cytometry, dose response (AID 702)
T1 sequence (P13612 whole entry): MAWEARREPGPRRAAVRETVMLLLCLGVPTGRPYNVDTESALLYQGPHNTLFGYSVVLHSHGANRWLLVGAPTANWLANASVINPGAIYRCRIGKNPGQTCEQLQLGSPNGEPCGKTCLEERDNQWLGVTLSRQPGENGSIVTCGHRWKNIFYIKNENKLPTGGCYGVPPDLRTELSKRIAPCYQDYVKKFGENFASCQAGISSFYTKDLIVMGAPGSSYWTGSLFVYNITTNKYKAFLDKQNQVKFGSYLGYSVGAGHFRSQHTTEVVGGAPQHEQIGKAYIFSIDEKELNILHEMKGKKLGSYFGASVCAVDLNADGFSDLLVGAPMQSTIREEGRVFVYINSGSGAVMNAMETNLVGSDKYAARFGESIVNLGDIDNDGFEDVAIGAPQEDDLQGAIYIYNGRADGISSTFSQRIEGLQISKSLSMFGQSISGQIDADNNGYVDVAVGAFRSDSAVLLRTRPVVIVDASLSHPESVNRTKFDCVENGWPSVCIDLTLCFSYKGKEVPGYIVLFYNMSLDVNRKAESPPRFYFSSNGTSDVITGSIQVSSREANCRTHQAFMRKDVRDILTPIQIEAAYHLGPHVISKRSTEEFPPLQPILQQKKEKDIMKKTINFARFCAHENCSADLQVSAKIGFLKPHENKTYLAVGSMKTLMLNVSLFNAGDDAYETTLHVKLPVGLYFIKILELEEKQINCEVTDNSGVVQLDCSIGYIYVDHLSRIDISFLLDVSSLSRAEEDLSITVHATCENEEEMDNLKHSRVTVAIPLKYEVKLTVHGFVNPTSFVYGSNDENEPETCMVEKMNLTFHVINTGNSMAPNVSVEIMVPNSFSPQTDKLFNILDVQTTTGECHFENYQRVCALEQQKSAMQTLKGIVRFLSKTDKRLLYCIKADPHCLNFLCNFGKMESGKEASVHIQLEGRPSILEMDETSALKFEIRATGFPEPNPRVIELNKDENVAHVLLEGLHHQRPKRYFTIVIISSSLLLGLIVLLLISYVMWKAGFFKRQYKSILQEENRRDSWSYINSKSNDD

SMILES | pEC50
O=c1c(CC[S+]([O-])c2ccccc2)c(O)n(-c2ccccc2)n1-c1ccccc1 (centres undefined) [1,2-Diphenyl-3,5-dioxo-4-(2-phenylsulfinylethyl)pyrazolidine] | 4.76
OC(CN1CCOCC1)CN(c1ccccc1)c1ccccc1 (centres undefined) [1-(4-morpholinyl)-3-(N-phenylanilino)-2-propanol;hydrochloride] | 5.38
COc1ccc(-n2ncc3c(N4CCCc5ccccc54)ncnc32)cc1 [1-[1-(4-methoxyphenyl)-1H-pyrazolo[3,4-d]pyrimidin-4-yl]-1,2,3,4-tetrahydroquinoline] | 4.28
CN1C(=S)SC(N(O)C(=O)Nc2ccccc2)C1(C)C (centres undefined) [1-hydroxy-3-phenyl-1-(3,4,4-trimethyl-2-sulfanylidene-1,3-thiazolidin-5-yl)urea] | 4.50
CCOC(=O)c1cnc(-n2nc(C)cc2C)nc1NC(C)c1ccccc1 (centres undefined) [2-(3,5-dimethyl-1-pyrazolyl)-4-(1-phenylethylamino)-5-pyrimidinecarboxylic acid ethyl ester] | 4.00
COCCNC(=O)C(c1ccncc1)N(C(=O)Cn1nnc2ccccc21)c1ccc(OC)cc1 (centres undefined) [2-(N-[2-(1-benzotriazolyl)-1-oxoethyl]-4-methoxyanilino)-N-(2-methoxyethyl)-2-pyridin-4-ylacetamide] | < 4.00
Cc1csc(NC(=O)CSc2nsc(SCC(=O)Nc3nc(C)cs3)c2C#N)n1 [2-[[4-cyano-3-[2-[(4-methyl-1,3-thiazol-2-yl)amino]-2-oxidanylidene-ethyl]sulfanyl-1,2-thiazol-5-yl]sulfanyl]-N-(4-methyl-1,3-thiazol-2-yl)ethanamide] | 4.69
CCCCc1c(O)n(-c2ccccc2)n(-c2ccccc2)c1=O [3,5-Dioxo-1,2-diphenyl-4-n-butylpyrazolidine] | 5.97
COc1ccc(-c2coc3c(CN4CCCCC4)c(O)c(CN4CCCCC4)c(O)c3c2=O)cc1 [3-(4-methoxyphenyl)-5,7-bis(oxidanyl)-6,8-bis(piperidin-1-ylmethyl)chromen-4-one] | 4.00
CCCCC1(C(=O)OCC)CC(CN2CCOCC2)OC1=O (centres undefined) [3-butyl-2-keto-5-(morpholinomethyl)tetrahydrofuran-3-carboxylic acid ethyl ester] | 5.19
CCOC(=O)N1CCC(NC(=O)CSCc2nc(-c3ccc(OC)c(OC)c3)oc2C)CC1 [4-[[2-[[2-(3,4-dimethoxyphenyl)-5-methyl-4-oxazolyl]methylthio]-1-oxoethyl]amino]-1-piperidinecarboxylic acid ethyl ester] | 7.10
Nc1nonc1C(=O)NCCN=Cc1cc(Cc2ccccc2)cc(Br)c1O [4-amino-N-[2-[[(E)-(3-benzyl-5-bromo-6-oxocyclohexa-2,4-dien-1-ylidene)methyl]amino]ethyl]-1,2,5-oxadiazole-3-carboxamide] | < 4.00
Cc1ccc(C(=O)NCC(C)(C)O)cc1 [4-methyl-N-(2-methyl-2-oxidanyl-propyl)benzamide] | 5.63
COc1ccc(-c2nnc(Nc3nc4c(OC)cccc4s3)o2)c(OC)c1 [5-(2,4-dimethoxyphenyl)-N-(4-methoxy-1,3-benzothiazol-2-yl)-1,3,4-oxadiazol-2-amine] | 5.55
COc1cccc2sc(Nc3nnc(-c4ccc(F)cc4)o3)nc12 [5-(4-fluorophenyl)-N-(4-methoxy-1,3-benzothiazol-2-yl)-1,3,4-oxadiazol-2-amine] | 5.22
NC(=O)c1cc(N)ccc1N1CCCC1 [5-Amino-2-pyrrolidin-1-yl-benzamide] | < 4.00
Cc1ccccc1CS(=O)(=O)Cc1ccc(C(=O)NCc2ccccn2)o1 [5-[(2-methylbenzyl)sulfonylmethyl]-N-(2-pyridylmethyl)-2-furamide] | < 4.00

SMILES | pEC50
O=S1(=O)Nc2c(ccc3cccnc23)-c2ccccc21 [5H-quinolino[8,7-c][1,2]benzothiazine 6,6-dioxide] | 4.70
Cc1cc(=O)oc2c(CN3CCC(C)CC3)c(O)c(Cl)cc12 [6-chloranyl-4-methyl-8-[(4-methylpiperidin-1-yl)methyl]-7-oxidanyl-chromen-2-one] | 5.34
COc1cccc(N2CCN(c3ncnc4c3[nH]c3ccc(F)cc34)CC2C)c1 (centres undefined) [8-fluoranyl-4-[4-(3-methoxyphenyl)-3-methyl-piperazin-1-yl]-5H-pyrimido[5,4-b]indole] | 5.06
CC(N=O)C(=O)NCc1ccccn1 (centres undefined) [(2E)-2-(hydroxyimino)-N-(pyridin-2-ylmethyl)propanamide] | 7.05
COc1ccc(C(=O)Oc2ccc(C(C)=O)cc2)c(OC)c1 [(4-acetylphenyl) 2,4-dimethoxybenzoate] | 5.29
COc1cccc2sc(Nc3nc(-c4ccccn4)cs3)nc12 [(4-methoxy-1,3-benzothiazol-2-yl)-[4-(2-pyridyl)thiazol-2-yl]amine] | 5.17
COc1ccc(Nc2cc(C)nc3ccccc23)cc1 [(4-methoxyphenyl)-(2-methyl-4-quinolyl)amine;hydrochloride] | 5.37
C#CCN(C)C(C)Cc1ccccc1 (centres undefined) [Deprenyl] | < 4.00
CCOc1ccc2[nH]c(=O)c(CN(CC3COCCO3)C(=O)C3CC3)cc2c1 (centres undefined) [MLS000031787] | 4.35
COc1ccc(-c2nnc(Nc3nc4c(OC)cccc4s3)o2)cc1 [MLS000045458] | 5.10
O=S(=O)(Nc1cccc2ncccc12)c1cccs1 [MLS000057468] | 4.94
COc1ccc(OC)c(NC(=O)CCN2CCCC(C)C2)c1 (centres undefined) [MLS000070519] | 4.85
CCCOc1ccc(C(CC(=O)O)NC(=O)c2ccc3c(c2)OCO3)cc1 (centres undefined) [MLS000085916] | 4.95
CCOC(=O)c1c(C)oc2c1c1c(c3ccccc32)OCN(Cc2ccccn2)C1 [MLS000566323] | 5.36
COc1cccc2sc(Nc3nnc(-c4cccs4)o3)nc12 [MolPort-003-038-736] | 5.49
CCOC(=O)c1sc(Nc2nc3c(OC)cccc3s2)nc1C [SMR000027213] | 4.47
CCOc1ccc(-n2c(O)c(C=NCCN3CCNCC3)c(=O)[nH]c2=O)cc1 [SMR000057873] | 5.29
